According to patent US12685312B2, “Sulfonamide apyrase inhibitors” (Texas Crop Science, Inc., priority 2022, dated 2026):

system: apyrase; assay: Screen for apyrase inhibitors (Method 1, in vitro phosphate-release absorbance assay); format: biochemical; details: inhibitor conc at 1 mM stock, 1 hr room temperature, absorbance 630 nm; rounded average of two assay results
In short: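 Phosphate-release colorimetric assay (Windsor method) in 60 mM Hepes, 3 mM MgCl2, 3 mM CaCl2, 3 mM ATP, pH 6.5, with compound or DMSO control added. Released phosphate developed with ammonium molybdate and ascorbic acid/TCA, then stopped with citrate/acetic acid.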

Row | Structure (SMILES) | % Inhibition of Apyrase [%]
1 | Cc1ccc(C)c(S(=O)(=O)Nc2ccc(C(=O)Nc3ccc4c(c3)OCO4)cc2)c1 [I-929, N-(benzo[d][1,3]dioxol-5-yl)-4-((2,5-dimethylphenyl)sulfonamido)benzamide] | 55
2 | O=C(c1ccc(NS(=O)(=O)c2ccc(Cl)c([N+](=O)[O-])c2)cc1)N1CCCc2ccccc21 [I-930, 4-chloro-3-nitro-N-(4-(1,2,3,4-tetrahydroquinoline-1-carbonyl)phenyl)benzenesulfonamide] | 55
3 | Cc1cc(C)cc(NC(=O)c2ccc(NS(=O)(=O)c3ccc(F)c(Cl)c3)cc2)c1 [I-931, 4-((3-chloro-4-fluorophenyl)sulfonamido)-N-(3,5-dimethylphenyl)benzamide] | 55
4 | N#Cc1cccc(NC(=O)c2ccc(NS(=O)(=O)c3ccc(F)c(F)c3)cc2)c1 [I-932, N-(3-cyanophenyl)-4-((3,4-difluorophenyl)sulfonamido)benzamide] | 55
5 | Cc1cc(Br)ccc1NC(=O)c1ccc(NS(=O)(=O)c2ccc(F)cc2)cc1 [I-933, N-(4-bromo-2-methylphenyl)-4-((4-fluorophenyl)sulfonamido)benzamide] | 53
6 | COc1ccccc1NC(=O)c1ccc(NS(=O)(=O)c2ccc(C(F)(F)F)cc2)cc1 [I-934, N-(2-methoxyphenyl)-4-((4-(trifluoromethyl)phenyl)sulfonamido) benzamide] | 53
7 | O=C(Nc1ccc2c(c1)OCO2)c1ccc(NS(=O)(=O)c2ccc(Br)cc2)cc1 [I-935, N-(benzo[d][1,3]dioxol-5-yl)-4-((4-bromophenyl)sulfonamido)benzamide] | 52
8 | Cc1cccc(NC(=O)c2ccc(NS(=O)(=O)c3ccc(Br)cc3)cc2)c1 [I-936, 4-((4-bromophenyl)sulfonamido)-N-(m-tolyl)benzamide] | 52
9 | Cc1cccc(NC(=O)c2ccc(NS(=O)(=O)c3ccc(F)cc3)cc2)c1C [I-937, N-(2,3-dimethylphenyl)-4-((4-fluorophenyl)sulfonamido)benzamide] | 52
10 | Cc1ccc(S(=O)(=O)N(C)c2ccc(C(=O)Nc3ccc4c(c3)OCCO4)cc2)cc1 [I-938, N-(2,3-dihydrobenzo[b][1,4]dioxin-6-yl)-4-((N,4-dimethylphenyl)sulfonamido)benzamide] | 51
11 | O=C(Nc1ccc2c(c1)OCO2)c1ccc(NS(=O)(=O)c2ccc(F)cc2)cc1 [I-939, N-(benzo[d][1,3]dioxol-5-yl)-4-((4-fluorophenyl)sulfonamido)benzamide] | 50
12 | O=C(Nc1cccc(Br)c1)c1ccc(NS(=O)(=O)c2cccc([N+](=O)[O-])c2)cc1 [I-940, N-(3-bromophenyl)-4-((3-nitrophenyl)sulfonamido)benzamide] | 50
13 | COc1ccc(NC(=O)c2ccc(NS(=O)(=O)c3ccc4c(c3)OCCO4)cc2)cc1 [I-941, 4-((2,3-dihydrobenzo[b][1,4]dioxine)-6-sulfonamido)-N-(4-methoxyphenyl)benzamide] | 50
14 | COc1ccccc1NC(=O)c1ccc(NS(=O)(=O)c2ccc(C#N)cc2)cc1 [I-942, 4-((4-cyanophenyl)sulfonamido)-N-(2-methoxyphenyl)benzamide] | 49
15 | COc1ccccc1NC(=O)c1ccc(NS(=O)(=O)c2cccc(Cl)c2Cl)cc1 [I-943, 4-((2,3-dichlorophenyl)sulfonamido)-N-(2-methoxyphenyl)benzamide] | 48
16 | COc1ccccc1NC(=O)c1ccc(NS(=O)(=O)c2cccc(C#N)c2)cc1 [I-944, 4-((3-cyanophenyl)sulfonamido)-N-(2-methoxyphenyl)benzamide] | 47
17 | Cc1ccc(NC(=O)c2ccc(NS(=O)(=O)c3ccc(Br)cc3)cc2)cc1S(=O)(=O)N(C)C [I-945, 4-((4-bromophenyl)sulfonamido)-N-(3-(N,N-dimethylsulfamoyl)-4-methylphenyl)benzamide] | 44
18 | Cc1ccc(S(=O)(=O)N(C)c2ccc(C(=O)Nc3cccc(N4CCCC4=O)c3)cc2)cc1 [I-946, 4-((N,4-dimethylphenyl)sulfonamido)-N-(3-(2-oxopyrrolidin-1-yl)phenyl)benzamide] | 44
19 | Cc1ccc(S(=O)(=O)N(C)c2ccc(C(=O)Nc3ccccc3OC(F)F)cc2)cc1 [I-947, N-(2-(difluoromethoxy)phenyl)-4-((N,4-dimethylphenyl)sulfonamido)benzamide] | 43
20 | O=C(Nc1ccc(Br)cc1)c1ccc(NS(=O)(=O)c2ccc(F)c(F)c2)cc1 [I-948, N-(4-bromophenyl)-4-((3,4-difluorophenyl)sulfonamido)benzamide] | 43
21 | Cc1cccc(NC(=O)c2ccc(NS(=O)(=O)c3ccc4c(c3)OCCO4)cc2)c1 [I-949, 4-((2,3-dihydrobenzo[b][1,4]dioxine)-6-sulfonamido)-N-(m-tolyl)benzamide] | 42
22 | O=C(Nc1cccc(N2CCCC2=O)c1)c1ccc(NS(=O)(=O)c2ccccc2)cc1 [I-950, N-(3-(2-oxopyrrolidin-1-yl)phenyl)-4-(phenylsulfonamido)benzamide] | 39

Row | Structure (SMILES) | % Inhibition of Apyrase [%]
23 | Cc1ccc(NC(=O)c2ccc(NS(=O)(=O)c3ccc(F)cc3)cc2)c(C)c1 [I-951, N-(2,4-dimethylphenyl)-4-((4-fluorophenyl)sulfonamido)benzamide] | 38
24 | O=C(Nc1ccc(OC(F)F)cc1)c1ccc(NS(=O)(=O)c2ccccc2)cc1 [I-952, N-(4-(difluoromethoxy)phenyl)-4-(phenylsulfonamido)benzamide] | 36
25 | O=C(Nc1ccc2c(c1)OCO2)c1ccc(NS(=O)(=O)c2cccc(F)c2)cc1 [I-953, N-(benzo[d][1,3]dioxol-5-yl)-4-((3-fluorophenyl)sulfonamido)benzamide] | 26
26 | Cc1ccc(C)c(S(=O)(=O)Nc2ccc(C(=O)Nc3cccc(C#N)c3)cc2)c1 [I-954, N-(3-cyanophenyl)-4-((2,5-dimethylphenyl)sulfonamido)benzamide] | 25
27 | Cc1ccc(F)c(NC(=O)c2ccc(NS(=O)(=O)c3ccccc3)cc2)c1 [I-955, N-(2-fluoro-5-methylphenyl)-4-(phenylsulfonamido)benzamide] | 23
28 | COc1ccc(NC(=O)c2ccc(NS(=O)(=O)c3ccc(Cl)cc3F)cc2)cc1 [I-956, 4-((4-chloro-2-fluorophenyl)sulfonamido)-N-(4-methoxyphenyl)benzamide] | 22
29 | N#Cc1cccc(NC(=O)c2ccc(NS(=O)(=O)c3ccc(F)cc3)cc2)c1 [I-957, N-(3-cyanophenyl)-4-((4-fluorophenyl)sulfonamido)benzamide] | 20
30 | COc1ccc(NC(=O)c2ccc(NS(=O)(=O)c3ccc(F)cc3)cc2)cc1OC [I-958, N-(3,4-dimethoxyphenyl)-4-((4-fluorophenyl)sulfonamido)benzamide] | 19
31 | Cc1cc(F)ccc1S(=O)(=O)Nc1ccc(C(=O)Nc2cccc(C#N)c2)cc1 [I-959, N-(3-cyanophenyl)-4-((4-fluoro-2-methylphenyl)sulfonamido)benzamide] | 17
32 | O=C(Nc1ccccc1OC(F)F)c1ccc(NS(=O)(=O)c2ccccc2)cc1 [I-960, N-(2-(difluoromethoxy)phenyl)-4-(phenylsulfonamido)benzamide] | 14
33 | NS(=O)(=O)c1ccc(NC(=O)c2ccc(NS(=O)(=O)c3ccc(F)c(Cl)c3)cc2)cc1 [I-961, 4-((3-chloro-4-fluorophenyl)sulfonamido)-N-(4-sulfamoylphenyl)benzamide] | 14
34 | N#Cc1cccc(NC(=O)c2ccc(NS(=O)(=O)c3ccc4c(c3)OCCO4)cc2)c1 [I-962, N-(3-cyanophenyl)-4-((2,3-dihydrobenzo[b][1,4]dioxine)-6-sulfonamido)benzamide] | 11
35 | CC(=O)Nc1ccc(NC(=O)c2ccc(NS(=O)(=O)c3ccc(Br)cc3)cc2)cc1 [I-963, N-(4-acetamidophenyl)-4-((4-bromophenyl)sulfonamido)benzamide] | 10
36 | O=C(c1ccc(NS(=O)(=O)c2cc(Cl)ccc2Cl)cc1)N1CCc2ccccc21 [I-964, 2,5-dichloro-N-(4-(indoline-1-carbonyl)phenyl)benzenesulfonamide] | 10
37 | O=C(c1ccc(NS(=O)(=O)c2ccc(F)cc2)cc1)N1CCc2ccccc21 [I-965, 4-fluoro-N-(4-(indoline-1-carbonyl)phenyl)benzenesulfonamide] | 3
38 | O=C(Nc1ccc(S(=O)(=O)Nc2ccccc2Cl)cc1)c1ccc(C(F)(F)F)cc1 [I-971, N-(4-(N-(2-chlorophenyl)sulfamoyl)phenyl)-4-(trifluoromethyl)benzamide] | 67
39 | O=C(Nc1ccc(S(=O)(=O)Nc2ccc(F)c(Cl)c2)cc1)c1cccc([N+](=O)[O-])c1 [I-972, N-(4-(N-(3-chloro-4-fluorophenyl)sulfamoyl)phenyl)-3-nitrobenzamide] | 66
40 | COc1cccc(C(=O)Nc2ccc(S(=O)(=O)Nc3ccccc3OC)cc2)c1 [I-973, 3-methoxy-N-(4-(N-(2-methoxyphenyl)sulfamoyl)phenyl)benzamide] | 63
41 | Cc1ccc(C(=O)Nc2ccc(S(=O)(=O)Nc3ccc(F)cc3)cc2)cc1Br [I-974, 3-bromo-N-(4-(N-(4-fluorophenyl)sulfamoyl)phenyl)-4-methylbenzamide] | 63
42 | O=C(Nc1ccc(S(=O)(=O)Nc2cccc(C(F)(F)F)c2)cc1)c1cc([N+](=O)[O-])cc([N+](=O)[O-])c1 [I-975, 3,5-dinitro-N-(4-(N-(3-(trifluoromethyl)phenyl)sulfamoyl)phenyl) benzamide] | 62
43 | O=C(Nc1ccc(S(=O)(=O)Nc2ccc(Cl)cc2)cc1)c1cccc(C(F)(F)F)c1 [I-976, N-(4-(N-(4-chlorophenyl)sulfamoyl)phenyl)-3-(trifluoromethyl)benzamide] | 60
